Experimental data: US8236984B2, “Compound and use thereof in the treatment of amyloidosis” (Pentraxin Therapeutics Ltd., priority 2007, dated 2012)

Assays:
[1] = biological target: T1, transthyretin (Homo sapiens, UniProt P02766); assay: Intrinsic fluorescence quenching of transthyretin by ligand titration; assay type: binding; conditions: 1 μM transthyretin, PBS pH 7.4, ligand 0-2 μM, excitation 280 nm, 20° C.
T1 construct: Native tetrameric transthyretin was purified from fractionated human plasma; from tissue; host or cells: human plasma
Procedure: 3.2.1. Binding of 4ajm15 and mds84 by transthyretin. The interactions between the ligands 4ajm15 or mds84 and transthyretin were studied by monitoring intrinsic fluorescence in the emission range 300-500 nm on excitation at 280 nm using a Perkin Elmer LS55 fluorimeter and a standard 1 cm path length quartz cell at 20° C. Quenching of tryptophan was achieved by titrating 1 μM transthyretin in PBS, pH 7.4 with increasing concentrations of each ligand in the range 0-2 μM (FIG. 2A). […] At the same time the changes in 4ajm15 fluorescence upon binding to the protein were monitored in the emission range 400-600 nm and excitation at 340 nm that is the wavelength specific for 4ajm15 excitation. In these conditions, accumulation of the spectra highlights an isosbestic point at 483 nm (FIG. 2B). The same results were achieved by using mds84 (not shown). The results of the titration of 4ajm15 in presence and absence of transthyretin support a model of binding in which both the binding sites are simultaneously occupied by the palindromic ligand.
In each case increasing concentrations of ligand (0-2 μM) were added to 1 μM protein. The arrow in FIG. 2B indicates the isosbestic point at 483 nm occurring on formation of the protein ligand complex. […] The percent quenching represents ΔF/F0 where F0 is fluorescence intensity prior to the addition of ligands and AF is the decrease in fluorescence at a given ligand concentration.

[2] = biological target: T2, L55P variant transthyretin (Homo sapiens, UniProt P02766, L75P); assay: Inhibition of transthyretin aggregation at acidic pH (turbidity at 400 nm); assay type: biochemical; conditions: L55P 3.6 μM, pH 5.0; for Aggregation of transthyretin, Mean (1:1): ligand 3.6 μM; for Aggregation of transthyretin, Mean (3:1): ligand 10.8 μM
Procedure: (§1) 3.3.2 Inhibition of transthyretin aggregation by 4ajm15: In pilot experiments, transthyretin aggregates were formed from wild type transthyretin (3.6 μM) after incubation at acidic pH for 3 d at 37° C. (Colon and Kelly, 1992). The efficacy of 4ajm15 as an inhibitor of transthyretin aggregate formation was then compared with other transthyretin ligand compounds. […] After 30 min at 37° C., the pH was adjusted to pH 4.4 (with 0.2 M sodium acetate buffer pH 4.0), and the ˜1 ml mixtures were incubated unstirred for 3 d at 37° C.
(§2) Using the same method the activities of mds84 and 4ajm15 as inhibitors of the aggregation of both wild type transthyretin and the most aggressively aggregating transthyretin variant, L55P, were evaluated in triplicate with both proteins at 3.6 μM and with one (3.6 μM) or 3 equivalents (10.8 μM) of each ligand. Wild type transthyretin was studied at pH 4.4 and L55P at pH 5.0. […] Mean values and standard deviations are shown in Table 2 and in FIG. 4, where results with 1:1 molar ratio are shown cross hatched and 3:1 molar ratio in open bars.

[3] = biological target: T3, wild type transthyretin (Homo sapiens, UniProt P02766); assay: as above; assay type: biochemical; design: isolated from pooled normal human plasma, was obtained from Scipac; purchased Scipac Ltd, Sittingbourne, Kent, UK; host or cells: pooled normal human plasma; conditions: wild type 3.6 μM, pH 4.4, 3 d 37° C.; for Aggregation of transthyretin, Mean (1:1): ligand 3.6 μM; for Aggregation of transthyretin, Mean (3:1): ligand 10.8 μM
Procedure: 3.3.1 Wild type transthyretin. The purified wild type transthyretin (liquid and lyophilised) used in these experiments, isolated from pooled normal human plasma, was obtained from Scipac, (Sittingbourne, Kent, UK). Protein concentration was determined by absorbance at 280 nm after correction for light scattering at 320 nm using the absorption coefficient E1 cm^1%=14.0. […] Nano electrospray ionisation mass spectrometry confirmed the presence of normal and cysteinylated transthyretin monomers (Terazaki et al, 1998) under denaturing conditions, and solvent-bound transthyretin tetramer (Nettleton et al, 1998) under mild desolvation conditions.
as §1, §2

[4] = biological target: T2, L55P variant transthyretin; assay: Differential scanning calorimetry of transthyretin with ligand; assay type: binding; conditions: five fold molar excess of ligand
[5] = biological target: T2, L55P variant transthyretin; assay: Mass spectrometric analysis of subunit exchange; assay type: biochemical; design: made in house; conditions: L55P variant, decreasing molar ratios of ligand
Procedure: 4.2 Mass spectrometric analysis of subunit exchange. Recombinant wild type, L55P and V30M transthyretin variants were biosynthetically labelled with isotopes [^15N] and [^15N, ^13C] as previously described (Keetch C A et al, 2005). Immediately prior to analysis, proteins were buffer exchanged into 20 mM ammonium acetate, pH 7.0 using Micro Biospin columns (Bio-Rad, UK). The subunit composition of transthyretin was monitored as a function of time by incubating an equimolar solution (4.4 μM) of [^15N] and [^15N, ^13C] labelled proteins in the presence of 2-fold molar excess of 4ajm15 in DMSO or 2.5% DMSO alone as a control. Each experiment was carried out in triplicate at room temperature and at 4° C. as well, since it is known that subunit exchange is accelerated at low temperatures. Nanoflow ESMS was performed on a QToF2 instrument (Waters/Micromass UK, Ltd.) modified for high mass operation (Sobott et al, (2002)) and calibrated externally using caesium iodide (100 mg/ml). Each solution, 1.5 μl, was electrosprayed from gold coated borosilicate capillaries prepared in-house as described (Nettleton E J, et al, 1998). To preserve the non-covalent interactions in the transthyretin tetramer, the MS parameters applied were: capillary voltage 1.6 kV, sample cone 160 V, extractor cone 20 V, ion transfer stage pressure 7.0×10 ^−3 mbar, quadrupole analyzer pressure 9.5×10^−4 mbar and ToF analyzer pressure 1.7×10^−6 mbar. Data were processed with MassLynx software (Waters/Micromass UK, Ltd.) and are presented with minimal smoothing and without background subtraction.
This most unstable transthyretin variant rapidly undergoes spontaneous and extensive subunit exchange, as illustrated in FIG. 8. FIGS. 9-11 show the effects of decreasing molar ratios of mds84 on inhibition of subunit exchange. […] At lower molar ratios of mds84 some exchange takes place but the transthyretin molecules which bind mds84 are still completely stabilized.

[6] = biological target: T3, wild type transthyretin; assay: Differential scanning calorimetry of transthyretin with ligand; assay type: binding; design: isolated from pooled normal human plasma, was obtained from Scipac; purchased Scipac Ltd, Sittingbourne, Kent, UK; host or cells: pooled normal human plasma; conditions: five fold molar excess of ligand

| intrinsic fluorescence of transthyretin remaining after titration [1] [%] | Aggregation of transthyretin, Mean (1:1) [2] | Aggregation of transthyretin, Mean (3:1) [2] | Aggregation of transthyretin, Mean (1:1) [3] | Aggregation of transthyretin, Mean (3:1) [3] | Tm of L55P variant transthyretin with the ligand [4] [°C] | increase in Tm of L55P variant transthyretin [4] [°C] | ligand bound per mole of transthyretin for complete stabilization [5] | Tm of wild type transthyretin with the ligand [6] [°C] | increase in Tm of wild type transthyretin [6] [°C] | Structure (SMILES) |
| --- | --- | --- | --- | --- | --- | --- | --- | --- | --- | --- |
| 60 | 55 per cent of control with DMSO alone | 22 per cent of control with DMSO alone | 25 per cent of control with DMSO alone | 1.2 per cent of control with DMSO alone | – | – | – | – | – | N[C@@H](Cc1cc(I)c(Oc2cc(I)c(O)c(I)c2)c(I)c1)C(=O)O [T4, 3,5,3′,5′-Tetraiodo-L-Thyronine, reference compound] |
| – | 32 per cent of control with DMSO alone | 16.8 per cent of control with DMSO alone | 12.5 per cent of control with DMSO alone | 1.14 per cent of control with DMSO alone | 98.3 | 3.7 | two moles | 104.9 | 4.6 | O=C(O)c1ccc2nc(-c3cc(Cl)cc(Cl)c3)oc2c1 [Fx-1006A, 2-(3,5-dichlorophenyl)benzo oxazole-6-carboxylic acid, reference compound] |
